Experiment [1] concerns the target T1, CamA (Clostridioides difficile, UniProt Q183J3).
T1 sequence (Q183J3 1-577): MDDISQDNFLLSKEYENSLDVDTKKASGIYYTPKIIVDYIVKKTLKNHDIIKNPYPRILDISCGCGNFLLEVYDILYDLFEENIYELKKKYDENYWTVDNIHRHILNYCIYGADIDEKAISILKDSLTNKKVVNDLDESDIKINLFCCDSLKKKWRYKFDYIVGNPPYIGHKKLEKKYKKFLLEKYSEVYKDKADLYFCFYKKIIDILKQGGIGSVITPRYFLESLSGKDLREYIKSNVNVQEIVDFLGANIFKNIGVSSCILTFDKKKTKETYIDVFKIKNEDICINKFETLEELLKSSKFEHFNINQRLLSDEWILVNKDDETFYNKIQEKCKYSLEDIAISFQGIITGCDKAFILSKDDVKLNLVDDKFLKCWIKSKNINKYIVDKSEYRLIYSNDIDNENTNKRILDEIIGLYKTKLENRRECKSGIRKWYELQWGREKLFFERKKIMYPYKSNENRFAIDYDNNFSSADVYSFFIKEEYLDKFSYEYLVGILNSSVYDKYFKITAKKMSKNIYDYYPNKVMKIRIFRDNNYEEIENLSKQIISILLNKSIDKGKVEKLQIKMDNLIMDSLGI
The experiment in a line: CamA methylation inhibition assay. The following applies: for inhibition of CamA activity at single concentration / inhibition of CamA activity (selectivity panel): 10 μM compound; for inhibition of CamA activity at single concentration: 50 nM CamA, 40 μM SAM (Figure 1B); for inhibition of CamA activity (selectivity panel): 40 μM SAM (Figure 4A); for fold difference in CamA inhibition between 11a and 11b: 11a more potent than 11b. In kind it is biochemical.

In a further experiment the target is PRMT3 (Homo sapiens, UniProt O60678). Nature of the experiment: PRMT3 inhibition, fluorescence-based SAHH-coupled assay. It counts as biochemical.
The next experiment has as its target CcrM (Caulobacter vibrioides, UniProt P0CAW2). Nature of the experiment: Compound selectivity assay. In kind it is biochemical. The following applies: read-out: inhibition of CcrM activity, 10 μM compound, 40 μM SAM (Figure 4B).
For another experiment, the target named is T2, Dam (Escherichia coli, UniProt P0AEE8).
T2 sequence (P0AEE8 1-278): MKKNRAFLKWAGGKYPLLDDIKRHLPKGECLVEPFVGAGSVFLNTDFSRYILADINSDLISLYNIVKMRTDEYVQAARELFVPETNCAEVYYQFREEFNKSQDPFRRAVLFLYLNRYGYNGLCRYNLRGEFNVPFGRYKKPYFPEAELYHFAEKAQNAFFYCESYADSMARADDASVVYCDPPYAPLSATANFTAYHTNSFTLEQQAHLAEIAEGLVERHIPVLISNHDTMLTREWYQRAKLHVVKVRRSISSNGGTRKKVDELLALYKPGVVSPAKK
Nature of the experiment: Compound selectivity assay. It counts as biochemical. The following applies: read-out: inhibition of Dam activity, 10 μM compound, 40 μM SAM (Figure 4C).

A further experiment deals with MettL3–MettL14 (Homo sapiens, UniProt Q86U44). The experiment in a line: Compound selectivity assay. In kind it is biochemical. The following applies: for inhibition at 10 µM: read-out: inhibition of MettL3–MettL14 activity.
The next experiment has as its target MettL5–Trm112 (Homo sapiens, UniProt Q9NRN9). Nature of the experiment: Compound selectivity assay. It counts as biochemical. The following applies: read-out: inhibition of MettL5–Trm112 activity.
The target in a further experiment is T3, MettL16 (Homo sapiens, UniProt Q86W50).
T3 sequence (Q86W50 1-562): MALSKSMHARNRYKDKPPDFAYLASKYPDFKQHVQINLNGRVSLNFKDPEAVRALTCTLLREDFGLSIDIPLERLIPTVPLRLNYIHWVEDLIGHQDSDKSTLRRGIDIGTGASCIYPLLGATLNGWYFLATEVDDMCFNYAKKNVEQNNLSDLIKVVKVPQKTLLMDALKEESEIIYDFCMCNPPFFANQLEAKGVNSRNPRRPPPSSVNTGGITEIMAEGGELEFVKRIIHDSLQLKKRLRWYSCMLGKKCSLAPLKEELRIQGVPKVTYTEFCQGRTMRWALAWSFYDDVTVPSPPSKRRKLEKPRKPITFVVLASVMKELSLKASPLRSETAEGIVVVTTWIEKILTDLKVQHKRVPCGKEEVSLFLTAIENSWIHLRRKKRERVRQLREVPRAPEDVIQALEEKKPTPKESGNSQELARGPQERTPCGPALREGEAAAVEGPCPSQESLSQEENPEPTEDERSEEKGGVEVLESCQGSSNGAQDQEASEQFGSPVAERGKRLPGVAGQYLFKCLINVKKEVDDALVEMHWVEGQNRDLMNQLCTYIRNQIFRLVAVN
The experiment in a line: Compound selectivity assay. It counts as biochemical. The following applies: read-out: inhibition of MettL16 activity, 10 μM compound, 160 μM SAM (Figure 4F).

The target in a further experiment is PCIF1 (Homo sapiens, UniProt Q9H4Z3). The experiment in a line: Compound selectivity assay. It counts as biochemical. The following applies: read-out: inhibition of PCIF1 activity.
A further experiment concerns the target PRMT1 (Homo sapiens, UniProt Q99873). The experiment in a line: PRMT1 inhibition, fluorescence-based SAHH-coupled assay. It counts as biochemical. The following applies: for pIC50: IC50 PRMT1, 0.1 μM PRMT1, 10 μM SAM, 5 μM H4 peptide (1–21).
The target in experiment [2] is T1, CamA. The following applies: read-out: Km of CamA for SAM; previous measurements; cited from earlier work.
Another experiment has as its system MettL5. The following applies: read-out: SAM Km of MettL5; cited from earlier work.

pIC50, pKi: −log10 of the molar value. “Also recorded” adds a separate entry of the source. Like-named read-outs stand apart in the source and are kept apart here.

This is an account of results in PMC10127221 (ACS Chemical Biology, 2023).

Broadly, the pIC50 is the IC50 on a negative log10 scale, so that one unit is a factor of ten. A higher pIC50 goes with a low IC50. A word on the inhibition: it is how much of the control response was suppressed. As usually defined, the pKi is the negative decadic logarithm of the Ki, by convention in mol/L. A lower pKi goes with a high Ki. As a reminder, the Km is the concentration of substrate that gives half-maximal velocity.

Chain of PRMT3 (O60678 211-531): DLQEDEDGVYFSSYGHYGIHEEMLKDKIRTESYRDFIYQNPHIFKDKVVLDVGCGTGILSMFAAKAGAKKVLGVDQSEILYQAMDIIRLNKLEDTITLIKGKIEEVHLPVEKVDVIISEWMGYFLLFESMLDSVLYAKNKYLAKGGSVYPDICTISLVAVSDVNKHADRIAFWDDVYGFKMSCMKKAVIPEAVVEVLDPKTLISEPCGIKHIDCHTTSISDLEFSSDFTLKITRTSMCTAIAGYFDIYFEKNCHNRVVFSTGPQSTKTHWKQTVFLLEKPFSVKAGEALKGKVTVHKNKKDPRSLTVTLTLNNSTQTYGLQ
Chain of CcrM (P0CAW2 whole entry): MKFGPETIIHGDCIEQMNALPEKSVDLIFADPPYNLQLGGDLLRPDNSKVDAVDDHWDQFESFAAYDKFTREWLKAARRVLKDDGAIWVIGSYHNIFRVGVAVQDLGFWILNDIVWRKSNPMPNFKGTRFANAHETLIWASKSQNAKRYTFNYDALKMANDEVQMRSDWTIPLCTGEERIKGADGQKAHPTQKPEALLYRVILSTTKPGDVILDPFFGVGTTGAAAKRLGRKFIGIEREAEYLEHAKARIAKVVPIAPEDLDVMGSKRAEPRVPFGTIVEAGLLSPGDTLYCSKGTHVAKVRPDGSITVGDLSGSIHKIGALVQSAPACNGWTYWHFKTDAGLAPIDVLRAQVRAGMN
Chain of PRMT1 (Q99873 10-352 isoform Q99873-3): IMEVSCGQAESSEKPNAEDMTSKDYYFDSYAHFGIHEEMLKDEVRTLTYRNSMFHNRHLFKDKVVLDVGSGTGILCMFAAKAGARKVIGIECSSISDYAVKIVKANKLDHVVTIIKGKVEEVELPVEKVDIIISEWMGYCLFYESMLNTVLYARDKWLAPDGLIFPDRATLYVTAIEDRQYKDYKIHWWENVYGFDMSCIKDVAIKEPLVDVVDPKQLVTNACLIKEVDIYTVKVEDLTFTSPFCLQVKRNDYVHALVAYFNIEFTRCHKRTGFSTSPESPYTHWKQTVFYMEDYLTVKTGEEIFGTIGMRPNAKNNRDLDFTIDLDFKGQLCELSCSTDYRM
Chain of MettL5–Trm112 (Q9NRN9 whole entry): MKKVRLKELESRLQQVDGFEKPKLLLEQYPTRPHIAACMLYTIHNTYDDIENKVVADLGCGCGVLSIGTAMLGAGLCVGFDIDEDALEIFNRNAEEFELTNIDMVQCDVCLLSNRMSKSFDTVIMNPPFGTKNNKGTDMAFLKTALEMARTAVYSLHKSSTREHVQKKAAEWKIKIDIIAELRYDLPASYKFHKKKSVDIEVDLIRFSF
Chain of MettL5–Trm112 (Q9UI30 whole entry partner): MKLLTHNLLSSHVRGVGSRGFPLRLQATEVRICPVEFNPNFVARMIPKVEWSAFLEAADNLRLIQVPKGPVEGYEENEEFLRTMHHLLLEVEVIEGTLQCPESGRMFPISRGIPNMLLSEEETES
Chain of MettL3–MettL14 (Q86U44 whole entry): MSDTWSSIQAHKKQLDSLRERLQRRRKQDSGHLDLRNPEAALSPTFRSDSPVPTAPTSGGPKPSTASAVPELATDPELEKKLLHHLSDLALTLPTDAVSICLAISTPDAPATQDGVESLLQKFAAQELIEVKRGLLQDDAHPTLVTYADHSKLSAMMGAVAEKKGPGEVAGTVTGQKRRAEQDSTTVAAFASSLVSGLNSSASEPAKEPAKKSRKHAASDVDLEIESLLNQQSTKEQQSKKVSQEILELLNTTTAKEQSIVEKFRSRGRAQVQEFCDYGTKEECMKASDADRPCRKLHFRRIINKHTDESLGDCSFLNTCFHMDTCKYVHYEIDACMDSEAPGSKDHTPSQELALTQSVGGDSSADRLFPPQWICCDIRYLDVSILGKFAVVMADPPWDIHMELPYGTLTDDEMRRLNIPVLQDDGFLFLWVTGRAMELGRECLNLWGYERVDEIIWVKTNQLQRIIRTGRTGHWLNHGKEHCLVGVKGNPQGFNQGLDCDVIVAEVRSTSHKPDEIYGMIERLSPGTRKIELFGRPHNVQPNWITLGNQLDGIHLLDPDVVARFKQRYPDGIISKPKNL
Chain of MettL3–MettL14 (Q9HCE5 whole entry partner): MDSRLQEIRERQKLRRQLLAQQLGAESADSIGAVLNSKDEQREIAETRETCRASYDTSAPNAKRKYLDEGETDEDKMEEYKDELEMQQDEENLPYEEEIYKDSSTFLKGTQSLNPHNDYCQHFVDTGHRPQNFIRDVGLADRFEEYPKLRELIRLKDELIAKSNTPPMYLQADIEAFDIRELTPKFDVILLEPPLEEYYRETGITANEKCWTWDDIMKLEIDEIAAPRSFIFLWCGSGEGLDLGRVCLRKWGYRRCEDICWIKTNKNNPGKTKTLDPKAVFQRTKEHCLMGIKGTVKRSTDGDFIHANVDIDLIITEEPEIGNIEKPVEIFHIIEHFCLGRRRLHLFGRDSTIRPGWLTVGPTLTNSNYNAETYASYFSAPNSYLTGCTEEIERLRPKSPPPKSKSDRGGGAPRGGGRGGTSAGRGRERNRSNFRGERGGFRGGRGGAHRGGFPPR
Chain of PCIF1 (Q9H4Z3 whole entry): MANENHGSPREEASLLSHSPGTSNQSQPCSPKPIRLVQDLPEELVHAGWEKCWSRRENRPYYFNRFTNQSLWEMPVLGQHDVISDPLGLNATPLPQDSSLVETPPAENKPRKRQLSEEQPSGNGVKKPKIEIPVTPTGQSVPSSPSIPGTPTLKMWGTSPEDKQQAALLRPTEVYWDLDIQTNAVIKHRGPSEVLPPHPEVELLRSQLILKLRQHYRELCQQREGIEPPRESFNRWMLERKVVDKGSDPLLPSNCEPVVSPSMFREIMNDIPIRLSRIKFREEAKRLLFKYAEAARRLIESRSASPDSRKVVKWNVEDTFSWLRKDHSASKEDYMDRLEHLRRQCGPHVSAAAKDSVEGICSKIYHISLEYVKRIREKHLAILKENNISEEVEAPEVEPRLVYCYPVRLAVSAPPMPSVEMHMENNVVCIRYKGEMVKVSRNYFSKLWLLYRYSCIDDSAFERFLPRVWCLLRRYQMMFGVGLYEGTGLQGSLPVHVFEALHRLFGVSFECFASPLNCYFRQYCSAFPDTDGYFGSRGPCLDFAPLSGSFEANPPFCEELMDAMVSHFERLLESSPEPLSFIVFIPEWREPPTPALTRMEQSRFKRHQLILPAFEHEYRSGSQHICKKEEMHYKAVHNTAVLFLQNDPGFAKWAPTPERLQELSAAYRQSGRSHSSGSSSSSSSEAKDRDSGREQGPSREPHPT

In the case of `N=C(NCCCSC[C@H]1O[C@@H](n2cnc3c(N)ncnc32)[C@H](O)[C@@H]1O)NC1CCCCC1` [6d], the “inhibition of CamA activity at single concentration” value on CamA [1] is recorded as roughly 60%.

With `N=C(NCCCSC[C@H]1O[C@@H](n2cnc3c(N)ncnc32)[C@H](O)[C@@H]1O)NCC1CCCCC1` [6e], the “inhibition of CamA activity at single concentration” value at CamA [1] is roughly 85%. Moreover, on CamA [1], the “inhibition of CamA activity (selectivity panel)” value is recorded as no less than 80%. For the same molecule, the “fold improved potency of CamA inhibition relative to SGC0946” value on CamA [1] (ratio of IC50 values) is reported as greater than 3 ×. At CamA [1] (ratio of IC50 values CamA vs PRMT1), the “fold weaker inhibition of CamA than of PRMT1” value came out at 12.5 ×. Moreover, at CamA [1] (ratio of IC50 values CamA vs PRMT3), the “fold stronger inhibition of CamA than of PRMT3” value is recorded as greater than 4 ×. Further, the pIC50 at PRMT3 is 5.19; against MettL3–MettL14 it was less than 5.00. Moreover, the inhibition at 10 µM is no more than 50% at CcrM; no more than 50% at Dam; roughly 50% on MettL3–MettL14; roughly 50% on MettL5–Trm112; no more than 50% on MettL16; no more than 50% on PCIF1.

Consider `N=C(NCCCSC[C@H]1O[C@@H](n2cnc3c(N)ncnc32)[C@H](O)[C@@H]1O)NCc1ccccc1` [6g], for which the “inhibition of CamA activity at single concentration” value against CamA [1] is roughly 10%.

As for `N=C(NCCSC[C@H]1O[C@@H](n2cnc3c(NCCCc4ccccc4)ncnc32)[C@H](O)[C@@H]1O)NCC1CCCCC1` [11a, 1-(cyclohexylmethyl)-3-(2-((((2S,3S,4R,5R)-3,4-dihydroxy-5-(6-((3-phenylpropyl)amino)-9H-purin-9-yl)tetrahydrofuran-2-yl)methyl)thio)ethyl)guanidine], at CamA [1], the pIC50 was roughly 6.82; the negative-log Ki (pKi) was 7.05; the “inhibition of CamA activity (selectivity panel)” value is reported as no less than 80%; the “fold difference in CamA inhibition between 11a and 11b” value was found to be 1.8 ×. For the same molecule, at CamA [1] (ratio of IC50 values), the “fold improvement of CamA inhibition relative to 6e” value came to 10 × and the “fold improvement of CamA inhibition relative to 7” value is 5 ×. Moreover, the “mode of CamA inhibition (Lineweaver–Burk plot)” value on CamA [1] (with respect to SAM) is reported as “competitive inhibition; also recorded: competitive inhibitor of SAM”. Besides, the pIC50 against PRMT1 is 4.85. Further, at PRMT1 (ratio of IC50 values), the “fold reduction of PRMT1 inhibition from that of 6e” value was roughly 116 ×. On PRMT3, this molecule gave a negative logarithm of the IC50 (pIC50) of less than 4.00. Further, the inhibition at 10 µM at MettL3–MettL14 was no more than 50%. The inhibition at 10 µM on MettL5–Trm112 is no more than 50%. For the same molecule, the inhibition at 10 µM at PCIF1 was no more than 50%.

As to `N=C(NCCCSC[C@H]1O[C@@H](n2cnc3c(NCCCc4ccccc4)ncnc32)[C@H](O)[C@@H]1O)NCC1CCCCC1` [11b], the negative-log IC50 (pIC50) was 6.57 on CamA [1] and 5.92 at PRMT1. Further, at CamA [1], the “fold difference in CamA inhibition between 11a and 11b” value came out at 1.8 ×. Also, on PRMT1 (ratio of IC50 values), the “fold reduction of PRMT1 inhibition from that of 6e” value was found to be 10 ×. Moreover, the “fold stronger inhibition of PRMT1 than 11a” value at PRMT1 (ratio of IC50 values) is on record as greater than 11 ×. For the same molecule, the inhibition at 10 µM is no more than 50% at CcrM; no more than 50% at Dam; no more than 50% on MettL3–MettL14; roughly 50% at MettL5–Trm112; no more than 50% on MettL16; no more than 50% on PCIF1.

Take `Nc1ncnc2c1ccn2[C@@H]1O[C@H]([C@H](O)c2ccccc2)[C@@H](O)[C@H]1O` [LLY-283, reference compound]: the “inhibition of CamA compared with compounds 1–3 (in words)” value on CamA [1] (10 μM, Figure 1B, also ref 31) is “much weaker inhibition”.

Take `C[S+](CC[C@H](N)C(=O)[O-])C[C@H]1O[C@@H](n2cnc3c(N)ncnc32)[C@H](O)[C@@H]1O` (stereo partly drawn) [SAM, S-Adenosyl-L-methionine]: the Km was 25 µM on CamA [1] (read-out: Km of CamA for SAM, Michaelis–Menten, varying SAM (Figure 2E)); greater than 17 µM on CamA [2]; 1 µM in the experiment on MettL5.

With `OC[C@H]1O[C@@H](n2cnc3c(NCCCc4ccccc4)ncnc32)[C@H](O)[C@@H]1O` [compound 7, N6-phenylpropyladenosine], the “inhibition of PRMT1 (in words)” value against PRMT1 is listed as “does not significantly inhibit; also recorded: inhibits neither”. For the same molecule, on PRMT3, the “inhibition of PRMT3 (in words)” value is “does not significantly inhibit; also recorded: inhibits neither”. The inhibition at 10 µM at CcrM, on Dam, on MettL3–MettL14, at MettL5–Trm112, at MettL16 and on PCIF1 was no more than 50% in each case.
